This test is described as follows: viability loss in fusion assay cells – cell-based, MAGI and MAGI-HeLa co-culture, cytotoxicity control for HIV-1 fusion inhibitor project, dose response (AID 2286).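 As to all read-outs here: cells exposed to compound for at least 64 h before ATP readout; 100% = median of DMSO vehicle wells with no ATP signal meaning 0%.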 To be noted: MAGI-CCR5 cells viability, CellTiter-Glo ATP luminescence; for minimum viability: measured here: MAGI minimum viability across doses. Background: ATP-based viability assays read luminescence as a measure of living cells.

The mark [1] stands for this setting: MAGI-HeLa co-culture viability, at 50 µM, stronger effect = lower value.
Setting [2] is: at 12.5 µM, stronger effect = lower value.
The mark [3] stands for this setting: at 3.13 µM, stronger effect = lower value.
Setting [4] is: at 1.56 µM, stronger effect = lower value.

The source made the active and inactive calls.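 The calls were made as follows: active = minimum cell viability of 80% or lower across the dose range, counted as toxic; inactive = minimum cell viability above 80%.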

`COc1cc(/C=C(\C#N)c2nc3ccc(C)cc3[nH]2)cc([N+](=O)[O-])c1O`: under setting [1], the viability (commonly a read-out of living cells in per cent, often relative to untreated cells) came to 90.4%. This compound came in with a minimum viability (at 50 µM, stronger effect = lower value) of 74.1%.
As to `CCCCCNC(=O)c1ccc2c(=O)[nH]c3c(C(=O)NCC4CCCO4)sc(=S)n3c2c1` (centres undefined), the viability under setting [1] was found to be 105%. Also, for the setting “at 25 µM, stronger effect = lower value”, the minimum viability came to 69.3%.
Consider `Cc1ccc(-n2c(O)c(C=Nc3ccccc3-c3n[nH]c(=S)[nH]c3=O)c3ccccc3c2=O)c(C)c1`, for which the viability under setting [1] was 85.8%. In addition, for the setting “at 50 µM, stronger effect = lower value”, the minimum viability came out at 53.6%.
On to `NS(=O)(=O)c1cc(C(=O)NC2CCSc3ccccc32)ccc1Cl` (centres undefined), for which the viability is 103% under setting [1] and 84.3% (inactive) (at 50 µM (top of the series)). For the same compound, the minimum viability (at 50 µM, stronger effect = lower value) stood at 84.3%.
For the compound `CCOC(=O)c1sc(N2C(=O)C(O)=C(C(=O)c3ccco3)C2c2ccc([N+](=O)[O-])cc2)nc1C` (centres undefined), the viability was 124% under setting [1] and 80.3% (inactive) (at 50 µM (top of the series)). Where the note is “at 50 µM, stronger effect = lower value”, this compound returned a minimum viability of 80.3%.
As to `O=C(O)c1cc(N2N=C(C(F)(F)F)/C(=C/C=C/c3ccco3)C2=O)ccc1Cl`, the viability under setting [1] was 120% and the viability (at 50 µM (top of the series)) is 92.8% (inactive). Under setting [2], this compound showed a minimum viability of 84.9%.
Turning to `CC(c1ccccc1)N1C(=O)c2ccc(C(=O)Nc3ccc(Br)cc3C(=O)O)cc2C1=O` (centres undefined), the viability is 118% under setting [1] and 96.8% (inactive) (at 50 µM (top of the series)). Under setting [3], this compound showed a minimum viability of 86.6%.
For the compound `Cc1ccc2nc(N3C(=O)C(O)=C(C(=O)c4ccco4)C3c3cccc(O)c3)sc2c1` (centres undefined), the viability is 105% under setting [1] and 93.2% (inactive) (at 50 µM (top of the series)). In addition, the minimum viability under setting [4] came to 84.4%.
On the same counts, the results for `COc1cc(/C=C2\C(=N)N3N=C(S(C)(=O)=O)SC3=NC2=O)ccc1OC(=O)c1ccco1` are 102%, 101% (inactive) and 87.6%.
`Cc1ccccc1N=C1NC(=O)/C(=C/c2cccn2-c2cccc(C(=O)O)c2)S1`: the viability is 90% under setting [1] and 94.2% (inactive) (at 50 µM (top of the series)). This compound also came in with a minimum viability under setting [2] of 86.3%.
For the compound `O=C(O)CSCC(=O)N(Cc1ccccc1)c1nc(-c2ccccc2)c(-c2ccccc2)s1`, the viability is, setting by setting: under setting [1], 121%; (at 50 µM (top of the series)) 89% (inactive). The minimum viability (at 50 µM, stronger effect = lower value) amounted to 89%.
As for `CCOC(=O)C1=C(C)N=c2s/c(=C\c3ccc(OCC(=O)O)c(OC)c3)c(=O)n2C1c1ccc(OC)cc1` (centres undefined), the viability under setting [1] is 107% and the viability (at 50 µM (top of the series)) was 97.1% (inactive). The minimum viability under setting [4] is 88%.
Regarding `O=C(CCN1C(=O)/C(=C/c2cccs2)SC1=S)Nc1ccc(C(=O)O)c(O)c1`, the viability under setting [1] was found to be 104%. For the setting “at 50 µM, stronger effect = lower value”, this compound gave a minimum viability of 66%.
On to `COc1cc(/C=C2\S/C(=N/S(=O)(=O)c3ccc(C)cc3)NC2=O)c([N+](=O)[O-])cc1OC`, for which the viability is 98.5% under setting [1] and 98.6% (inactive) (at 50 µM (top of the series)). The compound also showed a minimum viability (at 50 µM, stronger effect = lower value) of 98.6%.
In the case of `COc1ccc(-c2nn(-c3ccccc3)cc2/C=C\C(=O)Nc2ccc(C(=O)O)cc2)cc1`, under setting [1], the viability is 93.2%. In addition, where the note is “at 50 µM, stronger effect = lower value”, the minimum viability is 73%.
The matching figures for `COc1ccccc1NS(=O)(=O)c1cccc(-n2c(O)c(C=Nc3ccccc3C(=O)O)c3ccccc3c2=O)c1`: 111% and 51.4%.
Consider `COC1C(OC(=O)c2ccc(C)[nH]2)C(O)C(Oc2ccc3c(O)c(NC(=O)c4ccc(O)c(CC=C(C)C)c4)c(=O)oc3c2Cl)OC1(C)C` (centres undefined), for which the viability under setting [1] was determined as 111% and the viability (at 50 µM (top of the series)) was 81.8% (inactive). This compound also returned a minimum viability (at 50 µM, stronger effect = lower value) of 81.8%.
Regarding `COc1cc(Cl)cc(C(c2c(C(=O)O)[nH]c3ccccc23)c2c(C(=O)O)[nH]c3ccccc23)c1O`, the viability is 100% under setting [1] and 80.5% (inactive) (at 25 µM (top of the series)). This compound also showed a minimum viability (at 25 µM, stronger effect = lower value) of 80.5%.
On to `CCc1nnc(NS(=O)(=O)c2ccc(NC(=S)NC(=O)/C=C/c3cccs3)cc2)s1`, for which the viability by setting is: under setting [1], 105%; (at 50 µM (top of the series)) 93.8% (inactive). The compound also showed a minimum viability (at 25 µM, stronger effect = lower value) of 83.5%.
On to `O=C(O)/C(CC(=O)c1ccc(Cl)cc1)=N/Nc1ccc([N+](=O)[O-])cc1[N+](=O)[O-]`, for which the viability by setting is: under setting [1], 114%; (at 50 µM (top of the series)) 84% (inactive). Where the note is “at 50 µM, stronger effect = lower value”, this compound displayed a minimum viability of 84%.
The matching figures for `O=C1NN(c2ccc(Cl)cc2)C(=O)/C1=C\c1ccc(-c2cccc(C(=O)O)c2)o1`: 81.8%, 83.3% (inactive) and 83.3%.
As for `O=C(O)c1ccc(-c2ccc(/C=C3\NC(=O)N(Cc4ccc(Cl)cc4)C3=O)o2)cc1Cl`, the viability was 102% under setting [1] and 107% (inactive) (at 50 µM (top of the series)). Further, the minimum viability under setting [3] is 98.2%.
On the same counts, the results for `O=C1N=c2ccc(Br)cc2=C1c1sc(=S)n(NS(=O)(=O)c2ccccc2)c1O` are 89.2%, 102% (inactive) and 98.5%.
As to `CC(C)S(=O)(=O)C1=NSC2=NC(=O)/C(=C\c3ccc(OC(=O)c4ccco4)cc3)C(=N)N21`, the viability reads like this: under setting [1], 100%; (at 50 µM (top of the series)) 103% (inactive). Also, the minimum viability under setting [4] came to 84.2%.
With `O=C(O)c1cc(N/N=C/c2ccc(-c3ccccc3)cc2)ccc1Cl`, under setting [1], the viability stood at 87.4%. The compound further showed a minimum viability (at 50 µM, stronger effect = lower value) of 69.9%.
The matching figures for `CC1=C(C(=O)OC(C)C)C(c2ccc(Cl)cc2)n2c(s/c(=C\c3ccc(OCC(=O)O)cc3)c2=O)=N1` (centres undefined): 103% and 73.5%.
With `N=C1/C(=C/c2ccc(-c3cccc(C(=O)O)c3)o2)C(=O)N=C2SC=C(c3ccccc3)N12`, the viability under setting [1] is 104% and the viability (at 50 µM (top of the series)) is 85.3% (inactive). This compound also showed a minimum viability (at 50 µM, stronger effect = lower value) of 85.3%.
For `COc1cc(/C=C2\C(=N)N3N=C(S(C)(=O)=O)SC3=NC2=O)cc(OC)c1OCCOc1cccc(C)c1`, the viability under setting [1] was determined as 120% and the viability (at 50 µM (top of the series)) is 82.5% (inactive). Under “at 50 µM, stronger effect = lower value”, the minimum viability was found to be 82.5%.
For the compound `COc1ccc(N=C2S/C(=C\c3ccc(OC(C)C(=O)O)c(OC)c3)C(=O)N2CCc2c[nH]c3ccccc23)cc1` (centres undefined), the viability under setting [1] is 148%. For the same compound, the minimum viability (at 50 µM, stronger effect = lower value) turned out to be 70.5%.
On the same counts, the results for `Cc1ccc(/C=C2\SC(=S)N(CCCC(=O)Nc3ccccc3C(=O)O)C2=O)cc1` are 127% and 63.9%.
Regarding `CCOC(=O)c1sc(N2C(=O)C(O)=C(C(=O)c3ccco3)C2c2cccc([N+](=O)[O-])c2)nc1C` (centres undefined), the viability by setting is: under setting [1], 110%; (at 50 µM (top of the series)) 83.5% (inactive). This compound also returned a minimum viability (at 50 µM, stronger effect = lower value) of 83.5%.
As for `O=C(COc1cccc2ccccc12)Nc1ccc(Cl)cc1C(=O)O`, under setting [1], the viability was 86.1%. In addition, under “at 50 µM, stronger effect = lower value”, the minimum viability worked out at 67.5%.
On the same counts, the results for `CCOC(=O)C1=C(C)N=c2s/c(=C\c3ccc(OCC(=O)O)cc3)c(=O)n2C1c1ccc(OC(C)C)cc1` (centres undefined) are 105% and 65.8%.
For the compound `O=c1[nH]c(=S)[nH]c2c1C(c1ccc(Br)cc1)c1c([nH]c(=S)[nH]c1=O)O2`, the viability is, setting by setting: under setting [1], 116%; (at 50 µM (top of the series)) 91.7% (inactive). In addition, the minimum viability under setting [2] was found to be 82.5%.
On to `Cc1ccc(Cl)cc1N1CCN(C(=O)Cc2c(C(=O)O)[nH]c3ccc(Cl)cc23)CC1`, for which the viability runs as follows: under setting [1], 98.9%; (at 50 µM (top of the series)) 91.8% (inactive). This compound also registered a minimum viability under setting [2] of 85.7%.
On to `COc1cc(/C=N/NS(=O)(=O)c2ccc3ccccc3c2)ccc1OCc1ccc(C(=O)O)cc1`, for which the viability under setting [1] worked out at 115% and the viability (at 50 µM (top of the series)) is 93.7% (inactive). This compound yielded a minimum viability (at 25 µM, stronger effect = lower value) of 85.7%.
Turning to `COc1cc(/C=C2/C(=O)NN(c3ccc(C)c(Cl)c3)C2=O)cc([N+](=O)[O-])c1O`, the viability by setting is: under setting [1], 103%; (at 50 µM (top of the series)) 107% (inactive). The minimum viability under setting [4] turned out to be 91.2%.
In the case of `CCOc1cc(Br)cc(C(c2c(C(=O)O)[nH]c3ccccc23)c2c(C(=O)O)[nH]c3ccccc23)c1O`, the viability under setting [1] is 100% and the viability (at 50 µM (top of the series)) was 87% (inactive). This compound came in with a minimum viability (at 6.25 µM, stronger effect = lower value) of 82.9%.
On to `Cc1cccc(S(=O)(=O)Nc2nc3ccccc3nc2Nc2cccc(C(=O)O)c2)c1`, for which the viability is, setting by setting: under setting [1], 100%; (at 50 µM (top of the series)) 88.6% (inactive). This compound also came in with a minimum viability (at 50 µM, stronger effect = lower value) of 88.6%.
For the compound `COC(=O)c1sc(-c2ccc(C(C)(C)C)cc2)cc1NC(=O)c1ccccc1C(=O)O`, under setting [1], the viability was determined as 111%. Also, for the setting “at 50 µM, stronger effect = lower value”, the minimum viability came out at 73.7%.
Take `O=C(O)CN1C(=O)/C(=C\c2cc(Br)ccc2OCc2ccccc2Cl)SC1=S`: the viability is 112% under setting [1] and 106% (inactive) (at 50 µM (top of the series)). The minimum viability under setting [3] amounted to 94.6%.
As for `CC1=C(C#N)C(=O)NC(=O)/C1=C\c1ccc(-c2cc(C)c(C)cc2[N+](=O)[O-])o1`, the viability by setting is: under setting [1], 107%; (at 50 µM (top of the series)) 86.5% (inactive). This compound also gave a minimum viability under setting [2] of 83.3%.
Turning to `O=C(O)c1cc(NC(=O)c2ccc(Br)cc2)cc(NC(=O)c2ccc(Br)cc2)c1`, the viability under setting [1] was 118% and the viability (at 50 µM (top of the series)) is 103% (inactive). This compound came in with a minimum viability under setting [3] of 99.1%.
On to `CC(/C=C1\SC(=S)N(c2ccc(C(=O)O)cc2)C1=O)=C\c1ccccc1`, for which the viability under setting [1] amounted to 88% and the viability (at 50 µM (top of the series)) was 99.7% (inactive). Where the note is “at 0.39 µM, stronger effect = lower value”, the minimum viability is 96.6%.

Values taken from PubChem BioAssay AID2286 (Southern Research Specialized Biocontainment Screening …, 2010).
